According to US12365696B2, “Small-molecule focal adhesion kinase (FAK) inhibitors” (DANA-FARBER CANCER INSTITUTE, INC., priority 2019, dated 2025):
Where two headings read alike, the source gives them in different places.

Legend:
Experiment in all cases: KINOMEscan
Assay type in all cases: binding
RIPK5 = RIPK5 (Homo sapiens (Human), UniProt Q6XUX3); settings: RIPK5, 10000 nM; read-out: Percent Control
STK33 = STK33 (Homo sapiens (Human), UniProt Q9BYT3); settings: STK33, 10000 nM; read-out: Percent Control
WEE2 = WEE2 (Homo sapiens (Human), UniProt P0C1S8); settings: WEE2, 10000 nM; read-out: Percent Control
MET(Y1235D) = MET(Y1235D) (Homo sapiens (Human), UniProt P08581, Y1235D); settings: 10000 nM, read-out: Percent Control
GSK3A = GSK3A (Homo sapiens (Human), UniProt P49840); settings: 10000 nM, read-out: Percent Control
NEK2 = NEK2 (Homo sapiens (Human), UniProt P51955); settings: NEK2, 10000 nM; read-out: Percent Control
[1] = target: (Homo sapiens (Human), UniProt P57078); settings: read-out: Percent Control
FLT3(N841I) = FLT3(N841I) (Homo sapiens (Human), UniProt P36888, N841I); settings: 10000 nM, read-out: Percent Control
GRK1 = GRK1 (Homo sapiens (Human), UniProt Q15835); settings: GRK1, 10000 nM; read-out: Percent Control
TTK = TTK (Homo sapiens (Human), UniProt P33981); settings: 10000 nM, read-out: Percent Control
CLK3 = CLK3 (Homo sapiens (Human), UniProt P49761); settings: CLK3, 10000 nM; read-out: Percent Control
PKAC-beta = PKAC-beta (Homo sapiens (Human), UniProt P22694); settings: 10000 nM, read-out: Percent Control
ULK3 = ULK3 (Homo sapiens (Human), UniProt Q6PHR2); settings: ULK3, 10000 nM; read-out: Percent Control
EPHA6 = EPHA6 (Homo sapiens (Human), UniProt Q9UF33); settings: EPHA6, 10000 nM; read-out: Percent Control
EPHB4 = EPHB4 (Homo sapiens (Human), UniProt P54760); settings: EPHB4, 10000 nM; read-out: Percent Control
MKNK1 = MKNK1 (Homo sapiens (Human), UniProt Q9BUB5); settings: MKNK1, 10000 nM; read-out: Percent Control
BRAF(V600E) = BRAF(V600E) (Homo sapiens (Human), UniProt P15056, V600E); settings: 10000 nM, read-out: Percent Control
AURKB = AURKB (Homo sapiens (Human), UniProt Q96GD4); settings: 10000 nM, read-out: Percent Control
ITK = ITK (Homo sapiens (Human), UniProt Q08881); settings: 10000 nM, read-out: Percent Control
IKK-beta = IKK-beta (Homo sapiens (Human), UniProt O14920); settings: 10000 nM, read-out: Percent Control
[2] = target: ABL1(T315I)-nonphosphorylated (Homo sapiens (Human), UniProt P00519, T315I); settings: 10000 nM, read-out: Percent Control
PLK1 = PLK1 (Homo sapiens (Human), UniProt P53350); settings: PLK1, 10000 nM; read-out: Percent Control
CSNK1G1 = CSNK1G1 (Homo sapiens (Human), UniProt Q9HCP0); settings: CSNK1G1, 10000 nM; read-out: Percent Control
EPHB6 = EPHB6 (Homo sapiens (Human), UniProt O15197); settings: EPHB6, 10000 nM; read-out: Percent Control
SNARK = SNARK (Homo sapiens (Human), UniProt Q9H093); settings: 10000 nM, read-out: Percent Control
PDGFRA = PDGFRA (Homo sapiens (Human), UniProt P16234); settings: 10000 nM, read-out: Percent Control
CAMK2B = CAMK2B (Homo sapiens (Human), UniProt Q13554); settings: 10000 nM, read-out: Percent Control
FYN = FYN (Homo sapiens (Human), UniProt P06241); settings: 10000 nM, read-out: Percent Control
FLT3(D835Y) = FLT3(D835Y) (Homo sapiens (Human), UniProt P36888, D835Y); settings: 10000 nM, read-out: Percent Control
BRAF = BRAF (Homo sapiens (Human), UniProt P15056); settings: 10000 nM, read-out: Percent Control
FGFR4 = FGFR4 (Homo sapiens (Human), UniProt P22455); settings: FGFR4, 10000 nM; read-out: Percent Control
HASPIN = HASPIN (Homo sapiens (Human), UniProt Q8TF76); settings: 10000 nM, read-out: Percent Control
PAK4 = PAK4 (Homo sapiens (Human), UniProt O96013); settings: PAK4, 10000 nM; read-out: Percent Control
CLK2 = CLK2 (Homo sapiens (Human), UniProt P49760); settings: CLK2, 10000 nM; read-out: Percent Control
YSK1 = YSK1 (Homo sapiens (Human), UniProt O00506); settings: YSK1, 10000 nM; read-out: Percent Control

Chain of BRAF (P15056 whole entry): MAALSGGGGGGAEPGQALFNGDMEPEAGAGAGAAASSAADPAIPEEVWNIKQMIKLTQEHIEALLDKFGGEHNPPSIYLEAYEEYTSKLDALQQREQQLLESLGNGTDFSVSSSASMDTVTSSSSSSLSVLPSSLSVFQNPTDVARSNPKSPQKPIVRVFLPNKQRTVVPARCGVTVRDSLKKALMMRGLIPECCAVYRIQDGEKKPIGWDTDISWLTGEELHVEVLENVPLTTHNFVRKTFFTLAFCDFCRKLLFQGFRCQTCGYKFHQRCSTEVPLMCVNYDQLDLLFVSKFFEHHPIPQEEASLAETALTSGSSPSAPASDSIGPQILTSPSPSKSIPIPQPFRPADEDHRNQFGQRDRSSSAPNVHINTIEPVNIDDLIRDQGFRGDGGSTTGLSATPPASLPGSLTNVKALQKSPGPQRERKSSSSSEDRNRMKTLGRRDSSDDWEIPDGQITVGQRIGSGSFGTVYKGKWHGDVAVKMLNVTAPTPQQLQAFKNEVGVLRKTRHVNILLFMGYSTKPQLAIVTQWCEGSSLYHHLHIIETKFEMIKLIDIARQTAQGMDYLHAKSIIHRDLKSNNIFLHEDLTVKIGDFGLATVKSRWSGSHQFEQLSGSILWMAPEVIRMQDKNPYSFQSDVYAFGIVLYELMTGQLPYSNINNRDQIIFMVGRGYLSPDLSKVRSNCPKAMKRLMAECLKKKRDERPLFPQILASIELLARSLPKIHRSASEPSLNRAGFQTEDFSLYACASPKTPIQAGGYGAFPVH
Chain of CSNK1G1 (Q9HCP0 whole entry): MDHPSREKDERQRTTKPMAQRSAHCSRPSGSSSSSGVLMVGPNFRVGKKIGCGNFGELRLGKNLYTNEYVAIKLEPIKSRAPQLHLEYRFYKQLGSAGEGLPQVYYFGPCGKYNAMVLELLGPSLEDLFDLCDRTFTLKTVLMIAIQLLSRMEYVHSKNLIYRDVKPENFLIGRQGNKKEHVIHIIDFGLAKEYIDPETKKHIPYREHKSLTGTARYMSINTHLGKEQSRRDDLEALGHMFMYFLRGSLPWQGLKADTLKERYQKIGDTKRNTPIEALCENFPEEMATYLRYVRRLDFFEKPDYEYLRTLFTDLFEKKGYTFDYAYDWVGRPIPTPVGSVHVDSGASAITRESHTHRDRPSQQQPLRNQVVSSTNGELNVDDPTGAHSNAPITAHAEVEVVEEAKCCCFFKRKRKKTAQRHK
Chain of FGFR4 (P22455 22-802): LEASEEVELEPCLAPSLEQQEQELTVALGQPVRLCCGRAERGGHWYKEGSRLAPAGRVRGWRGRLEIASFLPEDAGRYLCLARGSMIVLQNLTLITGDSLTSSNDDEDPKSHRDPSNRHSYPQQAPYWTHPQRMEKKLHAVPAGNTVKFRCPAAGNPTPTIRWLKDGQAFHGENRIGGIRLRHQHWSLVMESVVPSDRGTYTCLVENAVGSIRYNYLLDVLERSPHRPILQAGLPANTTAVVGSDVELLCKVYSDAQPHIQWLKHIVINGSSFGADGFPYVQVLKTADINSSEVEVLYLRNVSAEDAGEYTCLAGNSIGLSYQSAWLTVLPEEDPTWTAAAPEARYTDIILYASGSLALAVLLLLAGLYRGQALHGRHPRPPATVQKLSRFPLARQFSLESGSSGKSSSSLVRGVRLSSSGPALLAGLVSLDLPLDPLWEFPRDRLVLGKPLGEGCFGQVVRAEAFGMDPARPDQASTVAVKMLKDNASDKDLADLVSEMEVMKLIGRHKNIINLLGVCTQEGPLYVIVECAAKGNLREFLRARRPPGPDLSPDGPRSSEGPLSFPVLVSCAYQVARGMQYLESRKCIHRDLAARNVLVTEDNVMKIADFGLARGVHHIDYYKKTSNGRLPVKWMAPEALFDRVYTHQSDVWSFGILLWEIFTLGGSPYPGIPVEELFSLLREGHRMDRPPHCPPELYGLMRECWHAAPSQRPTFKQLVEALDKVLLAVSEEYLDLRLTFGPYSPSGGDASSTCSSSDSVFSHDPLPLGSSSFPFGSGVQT
Chain of WEE2 (P0C1S8 whole entry): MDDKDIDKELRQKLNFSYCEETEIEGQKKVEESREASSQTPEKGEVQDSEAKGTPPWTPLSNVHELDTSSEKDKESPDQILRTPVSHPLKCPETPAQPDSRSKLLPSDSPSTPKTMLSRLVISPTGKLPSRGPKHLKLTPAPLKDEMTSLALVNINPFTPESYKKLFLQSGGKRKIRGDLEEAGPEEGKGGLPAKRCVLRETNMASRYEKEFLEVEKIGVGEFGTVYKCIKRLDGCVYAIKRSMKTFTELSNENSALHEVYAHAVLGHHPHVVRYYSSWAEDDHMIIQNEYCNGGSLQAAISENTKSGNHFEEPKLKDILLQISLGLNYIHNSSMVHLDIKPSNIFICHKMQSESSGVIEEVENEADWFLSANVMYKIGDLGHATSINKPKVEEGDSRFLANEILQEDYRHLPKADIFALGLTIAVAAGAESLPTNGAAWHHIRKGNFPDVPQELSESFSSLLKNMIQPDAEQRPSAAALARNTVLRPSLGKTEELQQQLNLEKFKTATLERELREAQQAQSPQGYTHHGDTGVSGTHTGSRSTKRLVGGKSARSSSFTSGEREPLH
Chain of MET(Y1235D) (P08581 25-1390 Y1235D): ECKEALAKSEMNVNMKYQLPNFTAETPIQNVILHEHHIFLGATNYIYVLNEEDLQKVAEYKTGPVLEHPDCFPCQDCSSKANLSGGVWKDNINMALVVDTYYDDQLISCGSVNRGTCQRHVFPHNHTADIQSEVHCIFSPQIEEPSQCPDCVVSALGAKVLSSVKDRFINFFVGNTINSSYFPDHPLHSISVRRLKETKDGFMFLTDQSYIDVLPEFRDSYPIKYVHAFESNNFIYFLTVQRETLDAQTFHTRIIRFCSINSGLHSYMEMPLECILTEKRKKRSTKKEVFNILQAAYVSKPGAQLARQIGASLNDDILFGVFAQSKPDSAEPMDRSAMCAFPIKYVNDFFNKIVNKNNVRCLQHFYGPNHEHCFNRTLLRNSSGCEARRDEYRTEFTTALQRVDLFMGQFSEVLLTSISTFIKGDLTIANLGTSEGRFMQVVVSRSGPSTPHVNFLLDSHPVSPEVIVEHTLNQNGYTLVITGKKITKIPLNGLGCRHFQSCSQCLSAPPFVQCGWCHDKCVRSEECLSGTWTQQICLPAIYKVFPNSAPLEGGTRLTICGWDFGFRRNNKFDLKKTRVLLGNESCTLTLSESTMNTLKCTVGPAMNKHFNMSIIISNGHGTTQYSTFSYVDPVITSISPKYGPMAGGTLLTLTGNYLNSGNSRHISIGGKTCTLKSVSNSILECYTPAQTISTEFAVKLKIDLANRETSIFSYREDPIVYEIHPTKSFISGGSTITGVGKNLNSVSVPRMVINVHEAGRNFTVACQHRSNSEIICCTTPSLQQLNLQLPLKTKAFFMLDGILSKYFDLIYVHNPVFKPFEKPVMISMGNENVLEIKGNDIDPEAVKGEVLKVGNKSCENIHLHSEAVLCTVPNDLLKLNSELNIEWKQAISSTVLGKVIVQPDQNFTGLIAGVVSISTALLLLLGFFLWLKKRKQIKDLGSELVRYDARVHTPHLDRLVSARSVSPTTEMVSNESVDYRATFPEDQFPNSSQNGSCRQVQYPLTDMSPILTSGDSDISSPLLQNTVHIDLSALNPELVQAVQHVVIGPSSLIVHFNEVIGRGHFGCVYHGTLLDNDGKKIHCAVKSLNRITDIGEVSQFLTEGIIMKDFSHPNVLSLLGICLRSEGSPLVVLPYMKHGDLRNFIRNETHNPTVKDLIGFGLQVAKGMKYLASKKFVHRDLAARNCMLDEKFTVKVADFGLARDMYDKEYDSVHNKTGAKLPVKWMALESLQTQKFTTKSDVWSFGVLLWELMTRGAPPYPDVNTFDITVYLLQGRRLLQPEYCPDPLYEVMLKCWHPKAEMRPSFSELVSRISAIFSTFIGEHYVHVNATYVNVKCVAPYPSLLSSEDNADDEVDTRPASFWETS
Chain of RIPK5 (Q6XUX3 whole entry): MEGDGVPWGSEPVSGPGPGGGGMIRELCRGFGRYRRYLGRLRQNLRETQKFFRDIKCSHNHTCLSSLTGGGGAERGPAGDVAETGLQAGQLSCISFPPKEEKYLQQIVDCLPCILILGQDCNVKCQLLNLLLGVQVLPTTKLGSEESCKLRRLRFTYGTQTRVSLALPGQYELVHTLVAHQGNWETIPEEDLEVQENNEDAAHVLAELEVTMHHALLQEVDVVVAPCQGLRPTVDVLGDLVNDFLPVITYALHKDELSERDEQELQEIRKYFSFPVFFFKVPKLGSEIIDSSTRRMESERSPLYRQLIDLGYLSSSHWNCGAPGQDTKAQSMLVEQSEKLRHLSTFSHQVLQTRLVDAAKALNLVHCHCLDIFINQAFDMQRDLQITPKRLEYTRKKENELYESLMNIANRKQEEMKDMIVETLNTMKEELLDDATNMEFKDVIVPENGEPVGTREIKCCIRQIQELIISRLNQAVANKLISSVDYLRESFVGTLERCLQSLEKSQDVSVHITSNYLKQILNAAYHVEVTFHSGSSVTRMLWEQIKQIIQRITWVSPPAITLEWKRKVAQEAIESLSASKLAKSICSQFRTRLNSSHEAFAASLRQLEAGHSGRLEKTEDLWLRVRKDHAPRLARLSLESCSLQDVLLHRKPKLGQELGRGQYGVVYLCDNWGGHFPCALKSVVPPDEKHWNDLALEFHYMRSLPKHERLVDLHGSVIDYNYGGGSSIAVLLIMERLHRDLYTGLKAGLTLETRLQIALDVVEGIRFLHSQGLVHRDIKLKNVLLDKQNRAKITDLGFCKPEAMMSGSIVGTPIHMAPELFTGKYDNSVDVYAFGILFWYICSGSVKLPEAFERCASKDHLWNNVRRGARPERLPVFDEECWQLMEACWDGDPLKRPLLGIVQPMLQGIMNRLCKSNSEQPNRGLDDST
Chain of BRAF(V600E) (P15056 whole entry V600E): as the sequence (P15056 whole entry) above, with V600E counted along it

Row | Compound | remaining binding at 10 µM (RIPK5) [%] | remaining binding at 10 µM (STK33) [%] | remaining binding at 10 µM (WEE2) [%] | remaining binding at 10 µM (MET(Y1235D)) [%] | remaining binding at 10 µM (GSK3A) [%] | remaining binding at 10 µM (NEK2) [%] | remaining binding at 10 µM (FLT3(N841I)) [%] | remaining binding at 10 µM (GRK1) [%] | remaining binding at 10 µM (TTK) [%] | remaining binding at 10 µM (CLK3) [%] | remaining binding at 10 µM (PKAC-beta) [%] | remaining binding at 10 µM (ULK3) [%] | remaining binding at 10 µM (EPHA6) [%] | remaining binding at 10 µM (EPHB4) [%] | remaining binding at 10 µM (MKNK1) [%] | remaining binding at 10 µM (BRAF(V600E)) [%] | remaining binding at 10 µM (AURKB) [%] | remaining binding at 10 µM (ITK) [%] | remaining binding at 10 µM (IKK-beta) [%] | remaining binding at 10 µM [2] [%] | further results
1 | COc1cc(N2CCC(N3CCN(C)CC3)CC2)ccc1Nc1ncc2c(n1)N(C)c1sc(C)nc1C(=O)N2 [Compound 3, 6-((2-methoxy-4-(4-(4-methylpiperazin-1-yl)piperidin-1-yl)phenyl)amino)-2,4-dimethyl-4,9-dihydro-10H-pyrimido[5,4-b]thiazolo[5,4-e][1,4]diazepin-10-one] | 100 | 84 | 65 | 90 | 82 | 84 | 98 | 86 | 51 | 97 | 82 | 95 | 83 | 61 | 100 | 100 | 100 | 87 | 100 | 100 | remaining binding at 10 µM ([1]; PIPK4, 10000 nM): 100%; remaining binding at 10 µM (PLK1): 100%; remaining binding at 10 µM (CSNK1G1): 86%; remaining binding at 10 µM (EPHB6): 45%; remaining binding at 10 µM (SNARK): 100%; remaining binding at 10 µM (PDGFRA): 100%; remaining binding at 10 µM (CAMK2B): 81%; remaining binding at 10 µM (FYN): 73%; remaining binding at 10 µM (FLT3(D835Y)): 76%; remaining binding at 10 µM (BRAF): 86%; remaining binding at 10 µM (FGFR4): 90%; remaining binding at 10 µM (HASPIN): 96%; remaining binding at 10 µM (PAK4): 65%; remaining binding at 10 µM (CLK2): 72%; remaining binding at 10 µM (YSK1): 79%
2 | COc1cc(N2CCC(N3CCN(C)CC3)CC2)ccc1Nc1ncc2c(n1)N(C)c1sc(C)nc1C(=O)N2C [Compound 5, 6-((2-methoxy-4-(4-(4-methylpiperazin-1-yl)piperidin-1-yl)phenyl)amino)-2,4,9-trimethyl-4,9-dihydro-10H-pyrimido[5,4-b]thiazolo[5,4-e][1,4]diazepin-10-one] | 60 | 10 | 100 | 98 | 100 | 100 | 83 | 81 | 6.9 | 97 | 100 | 97 | 86 | 100 | 96 | 97 | 99 | 99 | 96 | 100 | remaining binding at 10 µM ([1]; RIPK4, 10000 nM): 100%; remaining binding at 10 µM (PLK1): 0.7%; remaining binding at 10 µM (CSNK1G1): 97%; remaining binding at 10 µM (EPHB6): 100%; remaining binding at 10 µM (SNARK): 91%; remaining binding at 10 µM (PDGFRA): 88%; remaining binding at 10 µM (CAMK2B): 93%; remaining binding at 10 µM (FYN): 93%; remaining binding at 10 µM (FLT3(D835Y)): 91%; remaining binding at 10 µM (BRAF): 95%; remaining binding at 10 µM (FGFR4): 88%; remaining binding at 10 µM (HASPIN): 89%; remaining binding at 10 µM (PAK4): 100%; remaining binding at 10 µM (CLK2): 100%; remaining binding at 10 µM (YSK1): 100%
